# Patent US11766468B2, “Method of treating prostate cancer with GnRH antagonist” (priority 2012, dated 2023)
# How the values were obtained:
# testosterone = experiment: CS21 phase 3 study, degarelix vs leuprolide 7.5 mg: serum testosterone suppression; format: in vivo, human
# Procedure: In this example, an open-label, multi-center, randomized, parallel-group study was conducted to investigate the efficacy and safety of degarelix one month dosing regimens. […] These degarelix dosing regimens were compared to LUPRON DEPOT™ at 7.5 mg in patients with prostate cancer requiring androgen ablation therapy. […] Finally, the study evaluated the pharmacokinetics of the degarelix dosing regimens investigated. […] The primary efficacy endpoint was analyzed for both the ITT and PP analysis sets, with the ITT analysis set considered primary. The primary efficacy endpoint was analyzed using the Kaplan Meier method. For each of the three treatment groups, testosterone response rates with 95% confidence interval (CI) were calculated by log-log transformation of survivor function. […] All secondary efficacy endpoints were analyzed for both the ITT and PP analysis sets, unless otherwise stated. […] The percentage change in PSA from baseline to day 28 endpoint was analyzed by a Wilcoxon test. […] The secondary endpoints; probability of testosterone ≤0.5 ng/mL from Day 56 through Day 364, time to PSA failure and probability of sufficient testosterone response from Day 28 through Day 364 were analyzed by the Kaplan-Meier method.
# [1] = CS21: incidence rates of cardiovascular events per 1,000 person years (Poisson model), by risk-factor subgroup; details: in vivo
# Source text: The SCS summarizes both crude incidences (n/N) as well as incidence rates of adverse events (number of patients with at least one adverse event investigated per 1,000 person years) including exact 95% CI based on the Poisson model and presented per MedDRA Preferred term (and grouped by SOC) for all study-groups, including the CS21 trial (the trial comprising the controlled phase 3 study group) and for all sub-groups. Briefly, the Poisson model provides exact 1-α lower (LL) and upper (UL) confidence limits are LL=χ2x; α/2^2/(2T) and UL=χ2(x+1); 1-α/2^2/(2T), respectively, where T is the number of 1,000 person years and x=number of subjects at least once having reported the adverse event under investigation (see Gerlinger et al. (2003) Eur. J. Contracept. Reprod. Health Care 8:87-92).
# These P values were presented as *(0.01<P≤0.05), ** (0.001<P≤0.01), and *** (P≤0.001). Similarly, incidence rates were compared using P values associated with the Poison model-based UMPU test. Briefly, assuming xi˜Poisson(λiTi), where xi=the number of subjects with the event, Ti=total number of 1,000 person years in arm i and λi=incidence rate in arm i (i=1,2), then the P value=2 min ([…], P(S≤x1), 0.5), where S˜Binomial (x1+x2, T1/(T1+T2)) (see, e.g. Lehmann (1986) Testing Statistical Hypotheses, 2nd edition, Springer-Verlag, New York).
# In the SCS, cardiovascular events were more specifically investigated on more aggregated MedDRA levels, i.e. the incidence, and incidence rates of subject with AEs in the following High Level Group Terms were tabulated by study group and treatment:
# These subgroup analyses were not pre-planned as part of the SCS.
# [2] = age <65, degarelix 240@40/80@20, LUPRON DEPOT 7.5 mg
# [3] = degarelix 240/80 mg, leuprolide 7.5 mg
smiles,measurement,setting,value
"CCNC(=O)[C@@H]1CCCN1C(=O)[C@H](CCCNC(=N)N)NC(=O)[C@H](CC(C)C)NC(=O)[C@@H](CC(C)C)NC(=O)[C@H](Cc1ccc(O)cc1)NC(=O)[C@H](CO)NC(=O)[C@H](Cc1c[nH]c2ccccc12)NC(=O)[C@H](Cc1c[nH]cn1)NC(=O)[C@@H]1CCC(=O)N1 [Leuprolide, leuprolide, reference compound]",Probability of sufficient testosterone response,testosterone; [2],92.1%
same,Probability of testosterone ≤0.5 ng/mL from Day 28 through Day 364,testosterone; [2],89.5%
same,Probability of testosterone ≤0.5 ng/mL from Day 56 through Day 364,testosterone; [2],89.5%
same,patients with testosterone suppression on day 3,testosterone; day 3,no patients
same,Kaplan-Meier probability of testosterone ≤0.5 ng/mL from day 28 to day 364,testosterone; [3],96.4%
same,observed cases analysis: proportion of patients with testosterone ≤0.5 ng/mL from day 28 to day 364,testosterone; [3],96.0%
same,patients with testosterone surge (increase ≥15% from baseline),"testosterone; first two weeks, pooled degarelix, leuprolide 7.5 mg",80.1%
same,"Coronary artery disease, % of patients",[1],(5%)
same,"Coronary artery disease, incidence rate",[1],"63.4 per 1,000 person years"
same,"HLGT Cardiac arrhythmias, % of patients",[1],(8%)
same,"HLGT Cardiac arrhythmias, incidence rate",[1],"100 per 1,000 person years"
same,"HLGT Central nervous system vascular disorders, % of patients",[1],(<1%)
same,"HLGT Central nervous system vascular disorders, incidence rate",[1],"5.63 per 1,000 person years"
same,"HLGT Coronary artery disorders, % of patients",[1],(5%)
same,"HLGT Coronary artery disorders, incidence rate",[1],"63.4 per 1,000 person years"
same,"HLGT Heart failures, % of patients",[1],(2%)
same,"HLGT Heart failures, incidence rate",[1],"28.4 per 1,000 person years"
same,"Heart failure, % of patients",[1],(2%)
same,"Heart failure, incidence rate",[1],"28.4 per 1,000 person years"
same,"MI, % of patients",[1],(2%)
same,"MI, incidence rate",[1],"22.6 per 1,000 person years"
same,"Stroke, % of patients",[1],(<1%)
same,"Stroke, incidence rate",[1],"5.63 per 1,000 person years"
